Key:
Type in all cases: cell-based, human
[1] = system: IL-13-induced eotaxin-3 protein secretion in BEAS-2B cells; assay: IL-13-induced eotaxin-3 protein secretion in BEAS-2Bs (ELISA); conditions: for effect on IL-13-induced eotaxin-3 protein secretion: 2 h pretreatment (1-50 μM), IL-13 5 ng/ml 48 h
Procedure: (§1) BEAS-2B, a human bronchial epithelial cell line transformed with a hybrid adenovirus 12-simian virus 40 was obtained from ATCC (CRL-9609, Manassas, Va.). Primary HNECs were collected by epithelial scraping of IT and NP and cultured. For cytokine (Peprotech, Rocky Hill, N.J.) stimulation, submerged cultured cells were treated with 1-100 ng/ml IL-13, 10 ng/ml IFN-γ, 100 ng/ml TNF or 50 ng/ml IL-17 for 6 h or 48 h. To study the effects of PPIs (Sigma-Aldrich, St Louis, Mo.) on cytokine-induced chemokines, cells were pretreated for 2 h with acid-activated omeprazole (0.1-50 μM) or other PPIs: lansoprazole, rabeprazole, pantoprazole, and esomeprazole (1-50 μM) prior to stimulation with 5 ng/ml IL-13. Additionally, SCH-28080 (1-50 μM; Sigma-Aldrich) was used with the same protocol. In experiments altering extracellular K^+ concentration ([K^+]e), modified Ringer's solution that contained different contents of K^+ (0-11.2 mM KCl, Table 4) was used as culture media. For mRNA stability assessment, actinomycin D (3 μg/ml, Sigma-Aldrich) was used and eotaxin-3 mRNA was measured using real-time PCR. Supernatants, whole cell lysates, and total RNAs were harvested for further analysis.
(§2) Eotaxin-1, eotaxin-2, and eotaxin-3 protein concentrations in supernatants were determined with the appropriate ELISA kits.

[2] = system: IFN-γ-induced CXCL-10 (IP-10); assay: IFN-γ-induced CXCL10 (IP-10) mRNA expression in BEAS-2B cells; conditions: PPI 5 μM 2 h, IFN-γ 10 ng/ml 6 h
Procedure: (§3) FIG. 9. […] Cells were pretreated with various PPIs for 2 h and stimulated for 6 h with IFN-γ (10 ng/ml), TNF (100 ng/ml) or IL-17 (50 ng/ml). IFN-γ-induced CXCL10 (IP-10), TNF-α-induced eotaxin-1, and IL-17-induced CXCL1 mRNA expression levels in total RNA from cells were measured by using real-time PCR. Data represent means±SEM compared with vehicle-treated/cytokine-stimulated cells. O, omeprazole; L, lansoprazole; R, rabeprazole; P, pantoprazole; E, esomeprazole all at 5 μM
as §1
(§4) mRNA levels of eotaxin-1, eotaxin-2, eotaxin-3, CXCL1, CXCL10, ATP12A, and ATP4A in total RNAs isolated from cells were measured using quantitative real-time PCR. Western blots were performed to assess total signal transducer and activator of transcription 6 (STATE), phosphorylated-STAT6 (pSTAT6) and ATP12A protein in whole cell lysates (ref. 38; incorporated by reference in its entirety).

TNF-α-induced eotaxin-1 = TNF-α-induced eotaxin-1 mRNA expression in BEAS-2B cells; conditions: PPI 5 μM 2 h, TNF 100 ng/ml 6 h
Procedure: as §3, §1, §4

IL-17-induced CXCL-1 = assay: IL-17-induced CXCL1 mRNA expression in BEAS-2B cells; conditions: PPI 5 μM 2 h, IL-17 50 ng/ml 6 h
Procedure: as §3, §1, §4

[3] = system: IL-13-induced intracellular alkalinization in BEAS-2B cells (ngH,K-ATPase); assay: Intracellular pH (pHi) imaging, pHrodo Green, IL-13-stimulated BEAS-2Bs; conditions: up to 1 h after IL-13, spectrofluorometry
Procedure: The pH-sensitive dye, pHrodo® Green AM intracellular pH indicator (Life Technologies) that increases its fluorescence with decreasing pHi was used (ref 39; incorporated by reference in its entirety). Cells cultured in glass bottom microwell dishes (MatTek, Ashland, Mass.) were pre-treated with omeprazole or vehicle prior to 6 h IL-13 stimulation. Then cells were incubated with dye (5 μM) with live cell imaging solution (Life Technologies) at 37° C. for 30 minutes per manufacturer's instructions. Spinning disk confocal microscopy for live cells imaging was performed with Andor XDi Revolution (Andor Technologies, Belfast, UK). Fluorescence intensity was measured in 150 cells using Image J software (National Institutes of Health, Bethesda, Md.). For kinetic experiments, fluorescence intensity of cells cultured in 96-well plates with omeprazole, SCH-28080 or matched vehicle was measured at various times before and after IL-13 stimulation up to 1 h using the SpectraMax® Gemini EM Microplate Spectrofluorometer (Molecular devices, Sunnyvale, Calif.) at 485/538 nm (excitation/emission).

[4] = system: IL-13-induced eotaxin-3 protein secretion in HNECs; assay: IL-13-induced eotaxin-3 protein secretion in HNECs (ELISA)
Procedure: as §1, §2

pSTAT6 = assay: IL-13-induced STAT6 phosphorylation in BEAS-2Bs (Western blot)
Procedure: FIGS. 6A-6D. Effects of omeprazole on IL-13-induced STAT6 phosphorylation and eotaxin-3 mRNA stability. FIG. 6A, In IL-13-stimulated BEAS-2Bs with omeprazole or vehicle, pSTAT6 and total STAT6 protein expression were measured by using Western blots. FIG. 6B, Semi-quantitative densitometry data for A (Mean±SEM, n=3-6). FIG. 6C, Experimental protocol for eotaxin-3 mRNA stability assessment using real-time PCR. FIG. 6D, Relative eotaxin-3 mRNA expression levels following treatment with actinomycin D and/or omeprazole. mRNA levels of eotaxin-1, eotaxin-2, eotaxin-3, CXCL1, CXCL10, ATP12A, and ATP4A in total RNAs isolated from cells were measured using quantitative real-time PCR. Western blots were performed to assess total signal transducer and activator of transcription 6 (STATE), phosphorylated-STAT6 (pSTAT6) and ATP12A protein in whole cell lysates (ref. 38; incorporated by reference in its entirety).

[5] = 5 μM omeprazole, 2 h pretreatment, IL-13 48 h

SMILES: Cc1c(OCC(F)(F)F)ccnc1C[S+]([O-])c1nc2ccccc2[nH]1 (stereo not shown) [lansoprazole]
- effect on IL-13-induced eotaxin-3 protein secretion [1]: dose-dependent inhibitory effects
- IFN-γ-induced CXCL-10 (IP-10) mRNA expression [2]: did not inhibit
- TNF-α-induced eotaxin-1 mRNA expression (TNF-α-induced eotaxin-1): did not inhibit
- IL-17-induced CXCL-1 mRNA expression (IL-17-induced CXCL-1): did not inhibit

SMILES: COCCCOc1ccnc(C[S+]([O-])c2nc3ccccc3[nH]2)c1C (stereo not shown) [rabeprazole, 2-([4-(3-methoxypropoxy)-3-methylpyridin-2-yl]methylsulfinyl)-1H-benzo(d)-imidazole]
- effect on IL-13-induced eotaxin-3 protein secretion [1]: dose-dependent inhibitory effects
- IFN-γ-induced CXCL-10 (IP-10) mRNA expression [2]: did not inhibit
- TNF-α-induced eotaxin-1 mRNA expression (TNF-α-induced eotaxin-1): did not inhibit
- IL-17-induced CXCL-1 mRNA expression (IL-17-induced CXCL-1): did not inhibit

SMILES: Cc1nc2c(OCc3ccccc3)cccn2c1CC#N [SCH-28080]
- effect on IL-13-induced eotaxin-3 protein secretion [1]: significantly inhibited
- IL-13-induced intracellular alkalinization, kinetic studies [3]: blunted

SMILES: COc1ccc2[nH]c([S+]([O-])Cc3ncc(C)c(OC)c3C)nc2c1 (stereo not shown) [omeprazole, 5- or 6-methoxy-2-{[(4-methoxy-3,5-dimethylpyridin-2-yl)methyl]sulfinyl}-1H-ben-zimidazole]
- lowest concentration significantly inhibiting IL-13-induced eotaxin-3 protein secretion [1]: 5 µM
- IL-13-induced eotaxin-3 protein secretion was reduced [1, 5]: 57.9%
- lowest concentration significantly inhibiting IL-13-induced eotaxin-3 protein secretion [4]: 1 µM
- IL-13-induced eotaxin-3 protein secretion was reduced [4, 5]: 37.1%
- IFN-γ-induced CXCL-10 (IP-10) mRNA expression [2]: did not inhibit
- TNF-α-induced eotaxin-1 mRNA expression (TNF-α-induced eotaxin-1): did not inhibit
- IL-17-induced CXCL-1 mRNA expression (IL-17-induced CXCL-1): did not inhibit
- IL-13-induced pSTAT6 (pSTAT6): not significantly inhibited

SMILES: COc1ccc2nc([S@@+]([O-])Cc3ncc(C)c(OC)c3C)[nH]c2c1 [esomeprazole, S-5-methoxy-2-{(4-methoxy-3,5 dimethylpyridin-2-yl)methylsufinyl]-3H-benzoimidazole]
- effect on IL-13-induced eotaxin-3 protein secretion [1]: dose-dependent inhibitory effects
- IFN-γ-induced CXCL-10 (IP-10) mRNA expression [2]: did not inhibit
- TNF-α-induced eotaxin-1 mRNA expression (TNF-α-induced eotaxin-1): did not inhibit
- IL-17-induced CXCL-1 mRNA expression (IL-17-induced CXCL-1): did not inhibit

SMILES: COc1ccnc(C[S+]([O-])c2nc3ccc(OC(F)F)cc3[nH]2)c1OC (stereo not shown) [pantoprazole]
- IFN-γ-induced CXCL-10 (IP-10) mRNA expression [2]: did not inhibit
- TNF-α-induced eotaxin-1 mRNA expression (TNF-α-induced eotaxin-1): did not inhibit
- IL-17-induced CXCL-1 mRNA expression (IL-17-induced CXCL-1): did not inhibit

From US20180092894A1, “TREATMENT OF EOSINOPHILIC INFLAMMATORY DISEASE” (Northwestern University, priority 2016, published 2018)
